# Experimental data: patent US20190262457A1, “NOVEL ALKYLATING AGENT” (CHIBA-PREFECTURE, priority 2016, published 2019)
# Assays:
# A2058 cells = experiment: Cytotoxicity test by WST assay, IC50 24 hours after administration; type: cell-based, human; conditions: WST-8
# Method: (§1) From the cell lines mentioned above, a large intestine cancer cell line SW480 was used as cells expressing PD-1, a large intestine cancer cell line RKO was used as cells expressing PD-L1, and a malignant melanoma cell line A2058 and a pancreatic cancer cell line MIA PaCa-2 were used as cells expressing CTLA-4. The cells of each line were inoculated at 3000 cells/well to a 96-well microplate and cultured overnight. On the next day, the cells were treated with CCC07-01 having a concentration of 0.1, 1, 10, 30, 100, 300, or 1000 nM (1 μM) for 24 hours. Then, WST-8 reagent was added to each well using Cell counting kit-8, and the mixture was reacted for 2 hours. Then, the cell count was calculated at a wavelength of 450 nm by the colorimetric analysis method using a microplate reader. The method for calculating the cell count involved: 1) obtaining the mean value of a medium alone, 2) subtracting the mean value of the medium from each well, 3) obtaining the mean value of DMSO, 4) dividing the medium mean value-subtracted value by the mean value of DMSO and then multiplying by 100, and 5) obtaining the mean value of each treatment group and a standard deviation, and preparing a graph. IC50 was calculated according to the following expression: IC50=10(LOG(A/B)×(50−C)/(D−C)+LOG(B) wherein A: a higher concentration of two concentrations sandwiching 50%, B: a lower concentration of two concentrations sandwiching 50%, C: the rate of inhibition at B, and D: the rate of inhibition at A.
# (§2) The cells used in the experiment were RKO (large intestine cancer), SW480 (large intestine cancer), A2058 (malignant melanoma), and MIA PaCa-2 (pancreatic cancer).
# MIA PaCa-2 cells = experiment: as above; type: cell-based, human; conditions: MIA-PaCa2 cells, WST-8
# Method: as §1, §2
# SW480 cells = experiment: as above; type: cell-based, human; conditions: WST-8
# Method: as §1, §2
# RKO cells = experiment: as above; type: cell-based, human; conditions: WST-8
# Method: as §1, §2
# [1] = tested on: cytotoxic T cells (CD8-positive cells) and regulatory T cells (Treg); experiment: Ratio of cytotoxic T cells to Treg in the spleen of RKO-transplanted humanized NSG mice (flow cytometer); type: in vivo, mouse; conditions: one week after administration
# Method: (§3) 1×10^7 cells of human PBMC (Precision Bioservices Inc.) were intravenously transplanted to each NSG mouse (NOD.Cg-Prkdc^scidI/2rg^tm1Wj1/SzJ; Charles River Laboratories Japan, Inc.) to prepare a humanized NSG mouse. One week after the PBMC transplantation, 1×10^7 RKO cells (ATCC) were subcutaneously transplanted to each humanized NSG mouse. After the transplantation, CCC07-01 was intravenously administered at 2.3 or 9.2 mg/kg to the mouse when tumorigenesis was able to be confirmed. The tumor size was measured over time, and the tumor volume (mm^3) was calculated according to the expression: Tumor volume=[…]. One week after the CCC07-01 administration, the spleen was harvested and homogenized in 2% FBS/PBS to prepare a cell suspension. The spleen cells were stained with a fluorescently labeled anti-human CD4 antibody, anti-human CD8 antibody and anti-human Foxp3 antibody and analyzed for the numbers of cytotoxic T cells (CD8-positive cells) and regulatory T cells (Treg: CD4-positive and Foxp3-positive cells) using a flow cytometer. Statistical processing was performed by the Mann-Whitney U test, and the significance level was set to P<0.05.
# CTLA-4 gene = experiment: Experiment to silence CTLA-4 gene (semi-quantitative RT-PCR), CCC07-01; type: cell-based, human; conditions: A2058 cells, 10 nM, 24 hours
# Method: A2058 or MIA PaCa-2 cells were cultured in a 6-well plate. On the next day, the cells were treated with 0, 1, or 10 nM CCC07-01 for 24 hours. The cells were collected, and total RNA was extracted therefrom. The extraction employed RNeasy Plus Mini Kit (Qiagen N.V., CA). Next, cDNA was prepared by reverse transcription with the extracted RNA as a template according to Super Script VILO cDNA Synthesis kit (Invitrogen Corp., CA). RT-PCR was performed with the cDNA as a template under the following conditions: the conditions involved denaturation at 95° C. for 2 minutes and then 33 cycles each involving 95° C. for 30 seconds, 60° C. for 30 seconds, and 72° C. for 30 seconds, followed by elongation reaction at 72° C. for 5 minutes. For a control, RT-PCR of GAPDH was performed using the same cDNA as above. The conditions for GAPDH involved denaturation at 95° C. for 2 minutes and then 22 cycles each involving 95° C. for 30 seconds, 55° C. for 30 seconds, and 72° C. for 30 seconds, followed by elongation reaction at 72° C. for 5 minutes. Each PCR product was electrophoresed on 2% agarose and then stained with ethidium bromide. The concentration of the band of the PCR product of CTLA-4 was calculated with the GAPDH band as a control using Image J. The concentrations of the PCR products for each concentration of PIP were compared for quantification.
# [2] = log-P (octanol/water partition coefficient) by HPLC, indole/curcumin calibration curve; type: physicochemical; conditions: calculated from indole/curcumin calibration curve, listed as CCC07-001
# Method: The polyamides were further analyzed for log-P (octanol/water partition coefficient) by HPLC. The retention times of 2 types of compounds (compound names) having a known log-P value and the polyamides were measured in the presence of a mixed solvent of 0.1% aqueous acetic acid solution and acetonitrile by HPLC using isocratic elution. […] The log-P values of the polyamides were calculated from the curve.
# [3] = tested on: subcutaneously transplanted RKO tumor; experiment: Tumor volume in RKO-transplanted humanized NSG mice; type: in vivo; conditions: humanized NSG mouse
# Method: as §3
smiles,measurement,setting,value
CC(=O)Nc1cn(C)c(C(=O)Nc2cc(C(=O)Nc3cn(C)c(C(=O)Nc4cn(C)c(C(=O)NCCC(=O)Nc5cc(C(=O)Nc6cc(C(=O)NCCCC(=O)Nc7cc(C(=O)Nc8cn(C)c(C(=O)NCCC(=O)Nc9cc(C(=O)Nc%10cc(C(=O)Nc%11ccc%12[nH]c(C(=O)N%13CC(CCl)c%14c%13cc(O)c%13ccccc%14%13)cc%12c%11)n(C)c%10)n(C)c9)n8)n(C)c7)n(C)c6)n(C)c5)n4)n3)n(C)c2)n1 (stereo not shown) [CCC07-01],IC50,A2058 cells,11 nM
same,IC50,MIA PaCa-2 cells,189 nM
same,IC50,SW480 cells,27 nM
same,IC50,RKO cells,12 nM
same,CD8-positive cell/Treg ratio in the spleen,[1]; 2.3 mg/kg intravenous,116.5
same,CD8-positive cell/Treg ratio in the spleen,[1]; 9.2 mg/kg intravenous,323.2
same,expression of CTLA-4,CTLA-4 gene,markedly decreased
same,logPow,[2],3.13
same,T/C ratio,[3]; 2.3 mg/kg intravenous,56.0%
same,T/C ratio,[3]; 9.2 mg/kg intravenous,41.5%
